Measurements published in ChEMBL document CHEMBL1201862, “PubChem BioAssay data set” (2004).
Active and inactive are the calls of the source.

Tests used:
Protein skinhead-1 = molecular target: T1, Protein skinhead-1 (Caenorhabditis elegans, UniProt P34707); format: functional
T1 sequence (P34707 whole entry): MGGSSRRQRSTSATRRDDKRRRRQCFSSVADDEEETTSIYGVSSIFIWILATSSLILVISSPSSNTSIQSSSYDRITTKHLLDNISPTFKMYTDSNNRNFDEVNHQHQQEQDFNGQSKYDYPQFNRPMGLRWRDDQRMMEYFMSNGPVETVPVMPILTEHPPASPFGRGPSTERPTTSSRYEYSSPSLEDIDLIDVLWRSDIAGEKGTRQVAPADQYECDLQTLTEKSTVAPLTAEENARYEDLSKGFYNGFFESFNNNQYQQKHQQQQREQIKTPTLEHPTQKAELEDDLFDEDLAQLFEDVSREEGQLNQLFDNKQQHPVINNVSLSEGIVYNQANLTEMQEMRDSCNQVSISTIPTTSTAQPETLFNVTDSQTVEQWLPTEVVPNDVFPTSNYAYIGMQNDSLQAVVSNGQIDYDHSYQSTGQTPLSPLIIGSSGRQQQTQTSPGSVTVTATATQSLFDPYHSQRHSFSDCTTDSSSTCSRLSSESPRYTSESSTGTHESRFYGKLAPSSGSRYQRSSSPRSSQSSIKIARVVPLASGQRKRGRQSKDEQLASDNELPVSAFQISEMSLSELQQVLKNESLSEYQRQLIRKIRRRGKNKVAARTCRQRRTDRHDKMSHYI

Aminopeptidase N = molecular target: T2, Aminopeptidase N (Plasmodium falciparum FcB1/Columbia, UniProt O96935); assay: P. falciparum M1AAP inhibitors, biochemical, fluorogenic H-Leu-NHMec substrate, 1536-well (AID 1445); parameters: species or system Plasmodium falciparum 3D7, 3D7
T2 sequence (O96935 whole entry): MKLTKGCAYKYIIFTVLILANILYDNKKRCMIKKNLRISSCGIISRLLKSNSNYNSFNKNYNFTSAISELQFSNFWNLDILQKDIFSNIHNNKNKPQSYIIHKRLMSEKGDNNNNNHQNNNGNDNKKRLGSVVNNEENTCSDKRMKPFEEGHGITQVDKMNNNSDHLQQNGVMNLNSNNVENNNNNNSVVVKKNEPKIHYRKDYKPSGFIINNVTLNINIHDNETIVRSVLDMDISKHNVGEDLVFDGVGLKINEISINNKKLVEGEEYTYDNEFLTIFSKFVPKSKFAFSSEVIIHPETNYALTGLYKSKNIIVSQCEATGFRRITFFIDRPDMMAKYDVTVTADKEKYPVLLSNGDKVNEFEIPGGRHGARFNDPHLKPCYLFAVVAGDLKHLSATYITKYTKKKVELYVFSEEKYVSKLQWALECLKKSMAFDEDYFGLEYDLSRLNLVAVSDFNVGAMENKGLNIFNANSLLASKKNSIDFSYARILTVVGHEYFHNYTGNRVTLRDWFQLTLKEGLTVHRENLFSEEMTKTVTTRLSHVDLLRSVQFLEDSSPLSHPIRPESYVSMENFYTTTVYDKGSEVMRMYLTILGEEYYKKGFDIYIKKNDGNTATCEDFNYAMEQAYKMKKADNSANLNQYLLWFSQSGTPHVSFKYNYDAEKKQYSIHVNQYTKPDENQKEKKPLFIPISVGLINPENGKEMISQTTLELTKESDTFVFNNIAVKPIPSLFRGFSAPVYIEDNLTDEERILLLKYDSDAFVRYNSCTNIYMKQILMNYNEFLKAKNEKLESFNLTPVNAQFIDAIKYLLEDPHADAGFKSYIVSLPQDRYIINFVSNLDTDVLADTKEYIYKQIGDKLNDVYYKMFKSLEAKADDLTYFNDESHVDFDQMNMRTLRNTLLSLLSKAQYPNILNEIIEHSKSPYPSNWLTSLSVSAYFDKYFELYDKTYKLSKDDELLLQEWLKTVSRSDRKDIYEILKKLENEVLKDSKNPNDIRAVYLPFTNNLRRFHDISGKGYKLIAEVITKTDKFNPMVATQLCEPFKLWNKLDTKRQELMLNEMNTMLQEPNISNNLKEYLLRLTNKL

Large T antigen = Large T antigen (Simian virus 40, UniProt P03070); format: functional, Betapolyomavirus macacae;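 also: Confirmatory-stage PubChem screen for compounds that inhibit SV40 T antigen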
[1] = molecular target: Induced myeloid leukemia cell differentiation protein Mcl-1 (Homo sapiens, UniProt Q07820); format: functional
BJ [2] = assay: cells; format: functional, cell-based; details: Homo sapiens
[3] = cytotoxicity toward DRD oncogenic fibroblasts, dose response, cell-based, non-viral oncogenic, luminescence (AID 1934); format: functional; details: Homo sapiens
[4] = Luminescence Cell-Based Dose Retest to Confirm Inhibitors of Cancer Stem Cells. [Related pubchem assays (depositor defined):AID2717, AID2721]; format: functional; details: Homo sapiens
BJ [5] = assay: cytotoxicity toward BJ-TERT-LT-ST fibroblasts, dose response, cell-based, RAS-independent, luminescence (AID 1935); format: functional; details: Homo sapiens;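 also: BJ fibroblasts immortalized with TERT plus LT and ST oncogenes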
BJ [6] = assay: cytotoxicity toward BJ-TERT fibroblasts, dose response, cell-based, RAS-independent, luminescence (AID 1933); format: functional; details: Homo sapiens
Cytochrome P450 2C19 = Cytochrome P450 2C19 (Homo sapiens, UniProt P33261); assay: Cytochrome panel assay with activity outcomes. Panel member name: p450-cyp2c19 Compounds with AC50 equal or less than 10 uM are considered active; format: functional; details: read-out: AC50
Cytochrome P450 2C9 = Cytochrome P450 2C9 (Homo sapiens, UniProt P11712)
[7] = miR-122 activators in hepatoma reporter cells, dose response, cell-based, Huh7 psiCHECK-miR122, Renilla luciferase, cherry-picked (AID 651956); format: functional;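 also: huh7 hepatoma cells stably carrying a psiCHECK-2 miR-122 sensor plasmid; renilla luciferase signal reporting endogenous miR-122 activity after 48 h compound exposure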
[8] = HEp-2 cell cytotoxicity, dose response, cytotoxicity control for RSV inhibitor project, HTS (AID 2410); format: functional; details: human respiratory syncytial virus
[9] = molecular target: T3, Zinc finger protein mex-5 (Caenorhabditis elegans, UniProt Q9XUB2); assay: MEX-5/TCR-2 RNA interaction inhibitors, dose response, biochemical, C. elegans, fluorescence polarization (AID 1960)
T3 sequence (Q9XUB2 whole entry): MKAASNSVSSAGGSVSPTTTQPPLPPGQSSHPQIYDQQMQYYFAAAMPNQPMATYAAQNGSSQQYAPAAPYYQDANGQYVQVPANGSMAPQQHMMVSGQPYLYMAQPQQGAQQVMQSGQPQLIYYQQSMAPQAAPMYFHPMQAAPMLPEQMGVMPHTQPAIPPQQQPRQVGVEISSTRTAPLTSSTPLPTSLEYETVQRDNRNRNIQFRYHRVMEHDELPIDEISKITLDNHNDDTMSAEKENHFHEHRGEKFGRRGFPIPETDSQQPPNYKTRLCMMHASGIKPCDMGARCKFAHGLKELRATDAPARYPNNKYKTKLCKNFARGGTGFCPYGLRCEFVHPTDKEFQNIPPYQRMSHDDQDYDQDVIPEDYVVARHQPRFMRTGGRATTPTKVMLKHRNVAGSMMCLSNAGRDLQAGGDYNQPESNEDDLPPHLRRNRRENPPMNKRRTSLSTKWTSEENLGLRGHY

Genome polyprotein = Genome polyprotein (dengue virus type 2, UniProt P29990); assay: Dengue-2 NS5 methyltransferase inhibitors, primary screen, biochemical, confirmation dose response (AID 588689); format: functional
[10] = molecular target: T4, RNA-binding protein pos-1 (Caenorhabditis elegans, UniProt G5EF15); assay: inhibitors of POS-1/mex-3 RNA binding, dose response, biochemical, fluorescence polarization (AID 1964);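 also: purified POS-1 fused to maltose binding protein made in E. coli; potency of compounds blocking POS-1 binding to fluorescent RNA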
T4 sequence (G5EF15 whole entry): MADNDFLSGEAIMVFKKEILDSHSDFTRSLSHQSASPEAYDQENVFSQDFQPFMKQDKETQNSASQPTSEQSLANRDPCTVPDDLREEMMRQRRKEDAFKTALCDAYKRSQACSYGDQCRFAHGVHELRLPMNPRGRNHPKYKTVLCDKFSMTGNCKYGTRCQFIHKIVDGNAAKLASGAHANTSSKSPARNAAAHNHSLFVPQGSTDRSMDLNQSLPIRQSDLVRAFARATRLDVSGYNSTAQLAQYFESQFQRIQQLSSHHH

Vero = assay: cells; format: functional; details: Chlorocebus sabaeus
[11] = ZM109 Env clade C HIV-1 fusion inhibitors, dose response, HeLa effector, CEM target cells, luciferase, cherry-pick (AID 652058); format: functional, cell-based
[12] = off-target signal loss in HeLa-CEM21 co-culture – HeLa F-luc CTL cells, cherry-picked, counter-screen for HIV-1 Env fusion inhibitor project, dose response (AID 652040); format: functional, cell-based;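 also: potency for signal decrease marking cytotoxic or nonspecific inhibition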
[13] = inhibitors of HIV Env-driven cell fusion, dose response, cherry-pick (AID 652057); format: functional, cell-based
[14] = inhibitors of clade B AD8 Env fusion, dose response, cell-based, cherry-pick (AID 652062); format: functional;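 also: luciferase signal from cell-cell fusion driven by HIV-1 clade B AD8 Env; potency is for inhibitors of fusion seen as a drop in luminescence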
[15] = intracellular Trypanosoma cruzi inhibitors in host cells – cell-based, plate reader, cherry-pick samples, set 3, dose response (AID 651818); format: functional;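 also: compounds incubated with infected cells for about four days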

Sequence of Induced myeloid leukemia cell differentiation protein Mcl-1 (Q07820 whole entry): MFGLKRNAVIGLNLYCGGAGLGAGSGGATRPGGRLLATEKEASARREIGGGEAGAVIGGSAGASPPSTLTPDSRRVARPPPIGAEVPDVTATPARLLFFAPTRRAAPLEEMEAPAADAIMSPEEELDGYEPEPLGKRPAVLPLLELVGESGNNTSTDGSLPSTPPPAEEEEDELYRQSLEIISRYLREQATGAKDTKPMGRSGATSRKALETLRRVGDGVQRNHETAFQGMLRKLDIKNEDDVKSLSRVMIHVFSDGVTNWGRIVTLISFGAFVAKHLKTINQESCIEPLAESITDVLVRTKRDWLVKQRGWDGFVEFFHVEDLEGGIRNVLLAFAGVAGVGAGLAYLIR
Sequence of Cytochrome P450 2C19 (P33261 whole entry): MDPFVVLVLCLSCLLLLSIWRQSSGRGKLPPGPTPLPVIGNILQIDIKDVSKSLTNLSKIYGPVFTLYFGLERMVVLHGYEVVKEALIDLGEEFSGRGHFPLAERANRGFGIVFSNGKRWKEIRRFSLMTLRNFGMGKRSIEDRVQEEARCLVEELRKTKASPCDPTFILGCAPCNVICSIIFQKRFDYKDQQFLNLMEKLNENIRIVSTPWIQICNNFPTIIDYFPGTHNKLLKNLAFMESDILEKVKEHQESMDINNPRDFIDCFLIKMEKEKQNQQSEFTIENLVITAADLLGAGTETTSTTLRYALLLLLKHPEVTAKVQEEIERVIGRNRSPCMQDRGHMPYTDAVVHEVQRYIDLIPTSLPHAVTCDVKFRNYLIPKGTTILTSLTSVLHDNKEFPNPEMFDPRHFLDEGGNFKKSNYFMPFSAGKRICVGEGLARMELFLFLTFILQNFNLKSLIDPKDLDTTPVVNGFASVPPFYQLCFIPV
Sequence of Cytochrome P450 2C9 (P11712 whole entry): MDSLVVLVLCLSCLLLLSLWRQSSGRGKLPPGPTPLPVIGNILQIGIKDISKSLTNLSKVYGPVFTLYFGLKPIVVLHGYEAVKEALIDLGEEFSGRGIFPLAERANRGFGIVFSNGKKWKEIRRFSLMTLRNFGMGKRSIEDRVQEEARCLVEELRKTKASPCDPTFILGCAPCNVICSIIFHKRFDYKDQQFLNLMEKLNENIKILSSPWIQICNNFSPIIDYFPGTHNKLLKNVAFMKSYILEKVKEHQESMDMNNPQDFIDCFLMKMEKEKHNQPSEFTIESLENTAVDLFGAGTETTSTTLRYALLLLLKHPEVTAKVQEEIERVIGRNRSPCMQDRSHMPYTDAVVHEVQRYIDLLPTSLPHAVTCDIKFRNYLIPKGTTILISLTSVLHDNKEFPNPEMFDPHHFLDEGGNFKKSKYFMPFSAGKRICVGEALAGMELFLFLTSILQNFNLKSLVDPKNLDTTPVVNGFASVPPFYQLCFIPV
Sequence of Large T antigen (P03070 whole entry): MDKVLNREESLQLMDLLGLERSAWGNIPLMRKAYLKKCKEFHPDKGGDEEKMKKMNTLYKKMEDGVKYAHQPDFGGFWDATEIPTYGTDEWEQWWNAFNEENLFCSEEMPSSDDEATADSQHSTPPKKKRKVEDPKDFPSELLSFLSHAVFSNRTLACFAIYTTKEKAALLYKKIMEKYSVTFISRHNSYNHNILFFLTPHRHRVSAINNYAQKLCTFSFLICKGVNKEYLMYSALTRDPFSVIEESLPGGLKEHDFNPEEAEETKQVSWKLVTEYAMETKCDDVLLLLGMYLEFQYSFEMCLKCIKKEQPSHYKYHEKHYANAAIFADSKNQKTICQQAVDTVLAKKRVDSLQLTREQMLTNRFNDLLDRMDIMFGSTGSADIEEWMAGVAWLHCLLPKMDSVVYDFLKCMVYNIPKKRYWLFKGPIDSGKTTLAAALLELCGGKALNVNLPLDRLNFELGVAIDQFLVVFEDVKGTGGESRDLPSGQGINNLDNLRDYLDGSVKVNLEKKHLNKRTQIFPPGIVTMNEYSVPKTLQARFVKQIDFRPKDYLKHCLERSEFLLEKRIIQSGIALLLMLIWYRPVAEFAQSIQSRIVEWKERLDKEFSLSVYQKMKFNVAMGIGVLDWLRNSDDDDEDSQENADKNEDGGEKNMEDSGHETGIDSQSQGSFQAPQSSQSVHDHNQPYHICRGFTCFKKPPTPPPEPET
Sequence of Genome polyprotein (P29990 2492-3391 limits assumed): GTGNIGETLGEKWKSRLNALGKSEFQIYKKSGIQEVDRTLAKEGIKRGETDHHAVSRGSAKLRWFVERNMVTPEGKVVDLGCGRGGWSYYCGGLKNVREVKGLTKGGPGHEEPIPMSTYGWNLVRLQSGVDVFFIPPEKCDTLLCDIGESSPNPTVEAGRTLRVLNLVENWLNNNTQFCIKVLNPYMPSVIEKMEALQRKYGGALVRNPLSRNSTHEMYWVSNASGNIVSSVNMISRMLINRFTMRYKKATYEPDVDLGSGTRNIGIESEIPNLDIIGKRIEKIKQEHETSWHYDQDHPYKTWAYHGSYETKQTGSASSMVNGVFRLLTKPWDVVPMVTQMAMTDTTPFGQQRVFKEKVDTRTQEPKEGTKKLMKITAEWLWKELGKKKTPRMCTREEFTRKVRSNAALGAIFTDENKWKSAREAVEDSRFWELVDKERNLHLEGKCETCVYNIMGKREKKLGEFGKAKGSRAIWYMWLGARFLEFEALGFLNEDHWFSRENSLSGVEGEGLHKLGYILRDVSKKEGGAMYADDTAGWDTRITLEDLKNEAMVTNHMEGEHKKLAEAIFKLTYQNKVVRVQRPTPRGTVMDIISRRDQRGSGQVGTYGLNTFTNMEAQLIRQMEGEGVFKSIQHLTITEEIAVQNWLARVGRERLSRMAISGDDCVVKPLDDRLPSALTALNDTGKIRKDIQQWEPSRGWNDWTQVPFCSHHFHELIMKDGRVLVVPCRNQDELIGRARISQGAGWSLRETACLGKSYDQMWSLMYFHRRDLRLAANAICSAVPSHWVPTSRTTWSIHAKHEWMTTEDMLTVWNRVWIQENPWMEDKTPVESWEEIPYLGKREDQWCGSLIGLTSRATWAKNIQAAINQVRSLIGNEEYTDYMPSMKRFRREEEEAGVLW

COc1ccc(/C=C/C(=O)c2nc3ccccc3n2CC(=O)c2ccc(OC)cc2)cc1
IC50 (Protein skinhead-1): > 100 µM (inactive)

CCOc1cc(/C=C2/C(=N)N3N=C(c4ccccc4)SC3=NC2=O)ccc1O
IC50 (Aminopeptidase N): 30.1 µM (active) | IC50 (Large T antigen): 10.2 µM (active) | IC50 [1]: 3.61 µM (active)

COc1cc(NC(=O)c2csc(N)n2)cc(C(=O)Nc2cccc(C(F)(F)F)c2)c1
EC50 (BJ [2]): 52.4 µM (inconclusive) | EC50 [3]: 4.71 µM (active) | AC50 [4]: 2.19 µM (active) | EC50 (BJ [5]): 111 µM (active) | EC50 (BJ [6]): 8.47 µM (inconclusive)

COc1ccccc1Nc1nc(-c2sc(NC(=O)c3ccc([N+](=O)[O-])cc3)nc2C)cs1
AC50 (Cytochrome P450 2C19): 1.58 µM (inconclusive) | IC50 [1]: 0.449 µM (active) | AC50 (Cytochrome P450 2C9): 3.55 µM (inconclusive)

Cc1nc(Oc2ccccc2)c2oc3ccccc3c2n1
IC50 (Protein skinhead-1): > 100 µM (inactive)

COc1ccc(C(=O)C2CCCN(Cc3cccn3-c3ccccn3)C2)c(OC)c1 (stereo not drawn)
AC50 [7]: 21.8 µM (active)

O=C(/C=C/c1ccc(Cl)cc1)Nc1ccc(CN2CCOCC2)cc1
IC50 (Protein skinhead-1): 14.3 µM (active)

COc1ccc(NC2CC(=O)N(CCc3ccccc3)C2=O)cc1 (stereo not drawn)
IC50 (Protein skinhead-1): > 100 µM (inactive)

Clc1ccc2c(c1)c1cc(Cl)ccc1n2CN1CCOCC1
IC50 (Protein skinhead-1): 74.5 µM (inactive) | CC50 [8]: 17.9 µM (active)

Cc1cc(/C=C2\C(=O)NC(=O)N(c3ccccc3)C2=O)c(C)n1-c1ccc(C(=O)O)c(Cl)c1
EC50 [9]: > 300 µM (not active) | IC50 (Genome polyprotein): 63.7 µM (active) | EC50 [10]: > 300 µM (not active)

CCOC(=O)c1c(C)c(C)n2c1NC(=O)C2
IC50 (Protein skinhead-1): > 100 µM (inactive)

O=C(NCc1nc2ccccc2[nH]1)C1=C[C@H](C2CCCCC2)C[C@H](OCc2ccc(CO)cc2)O1
IC50 (Protein skinhead-1): > 100 µM (inactive) | CC50 (Vero): 16.1 µM (active)

Cc1ccc2c(c1)[C@H]1[C@H](CO2)[C@H](c2ccccc2)[C@]2(C)C(=O)N(CC3CCCO3)CC(=O)N12 (stereo partly drawn)
AC50 [11]: 2.05 µM (active) | AC50 [12]: 4.49 µM (active) | AC50 [13]: 2.63 µM (active) | AC50 [14]: 9.2 µM (active)

CC[C@]1(C(=O)OC)[C@H]2C(=O)N(Cc3ccccc3)C(=O)[C@H]2[C@H]2CN=C(SCc3ccc(C)cc3)N21
AC50 [11]: 1.56 µM (active) | AC50 [12]: 3.14 µM (active) | AC50 [13]: 2.43 µM (active) | AC50 [14]: 3.41 µM (active)

O=C1[C@H]2[C@@H](C3CC3)N3C(=O)CN(CC4CC4)C(=O)[C@@]3(Cc3ccccc3)[C@H]2C(=O)N1c1ccccc1
AC50 [11]: 3.84 µM (active) | AC50 [12]: 3.51 µM (active) | AC50 [13]: 1.76 µM (active) | AC50 [14]: 1.69 µM (active)

Cc1ccc(S(=O)(=O)Nc2ccc3c(c2)CC(=O)N([C@@H](C)CO)C[C@@H](C)[C@@H](CN(C)Cc2ccc(C(F)(F)F)cc2)O3)cc1
AC50 [15]: 2.03 µM (active)

C[C@@H]1CN([C@H](C)CO)C(=O)Cc2cc(NC(=O)Cc3ccccc3)ccc2O[C@@H]1CN(C)Cc1ccc(Cl)c(Cl)c1
AC50 [15]: 2.51 µM (active)

C[C@H]1CN([C@@H](C)CO)C(=O)Cc2cc(NC(=O)c3ccncc3)ccc2O[C@H]1CN(C)Cc1ccc(-c2ccccc2)cc1
AC50 [15]: 1.63 µM (active)

C[C@H]1CN([C@@H](C)CO)C(=O)Cc2cc(NC(=O)Cc3cn(C)c4ccccc34)ccc2O[C@H]1CN(C)Cc1ccc(C(F)(F)F)cc1
AC50 [15]: 1.81 µM (active)

C/C=C/c1ccc([C@H]2[C@@H](CO)N(Cc3ccccn3)[C@H]2CNC(=O)CC)cc1
AC50 [7]: 53.3 µM (active)

C[C@H]1CN([C@@H](C)CO)C(=O)c2cccc(NC(=O)Nc3cccc4ccccc34)c2O[C@H]1CN(C)Cc1ccc(C(=O)Nc2ccccc2N)cc1
AC50 [15]: 3.59 µM (active)

C[C@H](CO)N1C[C@H](C)[C@H](CN(C)S(=O)(=O)c2ccccc2)Oc2ccc(NC(=O)Nc3ccc(C(F)(F)F)cc3)cc2C1=O
AC50 [15]: 1.62 µM (active)

C[C@@H]1CN([C@H](C)CO)C(=O)Cc2cc(N(C)C)ccc2O[C@H]1CN(C)Cc1ccc2c(c1)OCO2
AC50 [15]: 6.22 µM (active)

C[C@H]1CN([C@@H](C)CO)C(=O)Cc2cc(NC(=O)C3CC3)ccc2O[C@@H]1CN(C)Cc1ccc(C(=O)Nc2ccccc2N)cc1
AC50 [15]: 3.59 µM (active)

C[C@@H]1CN([C@H](C)CO)C(=O)c2cccc(NS(=O)(=O)c3cccs3)c2O[C@@H]1CN(C)Cc1ccc(C(F)(F)F)cc1
AC50 [11]: < 0.26 µM (active) | AC50 [13]: < 0.26 µM (active) | AC50 [14]: 2.1 µM (active)
